Paper PMC13170396 (Journal of controlled release : official journal of the …, 2025)

Tests used:
[1] = tested on: HCT116 and UISO-Mel29 cells; experiment: Cell proliferation assay; assay type: cell-based, human
[2] = cited from earlier work; for clearance / elimination half-life t1/2 / volume of distribution: murine models
[3] = tested on: p53-positive solid tumors; conditions: clinical; cited from earlier work
[4] = cited from earlier work
[5] = tested on: HCT116, UISO-Mel29, CCD33Co and fibroblasts; experiment: Confocal imaging of cell penetration; assay type: cell-based, human; conditions: AF-p28 20 μM or AF-Arg8 5 μM, 2 h, 37 °C, confocal microscopy, Fig. 2A

CCN(CC)CCCC(C)Nc1ccnc2cc(Cl)ccc12 (stereo not shown) [CQ, chloroquine]
effect of CQ on the anti-proliferative effect of p28 ([1]; CQ 10 μM with varying concentrations of p28, 24 h, Fig. 6A, B): significantly enhanced the effect of p28
cytotoxic activity in cancer cells ([1]; Fig. S4): dose-dependent cytotoxic activity
primary route of excretion [2]: hepatic clearance
clearance [2]: 165 mL/min/kg
elimination half-life t1/2 [2]: 46.6 h
volume of distribution [2]: 667 L/kg

CSCC[C@H](NC(=O)CNC(=O)[C@H](CC(=O)O)NC(=O)[C@@H](NC(=O)[C@@H](NC(=O)[C@@H](NC(=O)CNC(=O)[C@H](CCC(N)=O)NC(=O)[C@H](CCSC)NC(=O)[C@H](CC(=O)O)NC(=O)[C@H](C)NC(=O)[C@H](C)NC(=O)[C@@H](NC(=O)[C@H](CO)NC(=O)[C@@H](N)CC(C)C)[C@@H](C)O)C(C)C)C(C)C)[C@@H](C)O)C(=O)N[C@@H](C)C(=O)N[C@@H](CO)C(=O)NCC(=O)N[C@@H](CC(C)C)C(=O)N[C@@H](CC(=O)O)C(=O)N[C@@H](CCCCN)C(=O)N[C@@H](CC(=O)O)C(=O)N[C@@H](Cc1ccc(O)cc1)C(=O)N[C@@H](CC(C)C)C(=O)N[C@@H](CCCCN)C(=O)N1CCC[C@H]1C(=O)N[C@@H](CC(=O)O)C(=O)N[C@@H](CC(=O)O)C(=O)O [p28]
primary route of excretion [2]: renal clearance
clearance [2]: 36.7 mL/min/kg
elimination half-life t1/2 [2]: 0.06 h
volume of distribution [2]: 0.29 L/kg
adverse effects, toxicity, immunogenicity in humans [3]: no significant adverse effects, toxicity or immunogenicity
water solubility [4]: highly water soluble

octaarginine [Arg8]
cell penetration, cancer cells compared to normal cells [5]: penetrated both cancer and normal cells
